Results reported in PMC8876511, “Two out of Three Musketeers Fight against Cancer: Synthesis, Physicochemical, and Biological Properties of Phosphino Cu^I, Ru^II, Ir^III Complexes” (Pharmaceuticals, 2022).

Legend:
[1] = system: MCF-7 cells; assay: MTT cytotoxicity assay, MCF-7; type: cell-based, human
Method: (§1) Moreover, to investigate the activity of synthesized complexes as potential anticancer agents, their cytotoxicity toward a series of human cancer cell lines and a non-cancer cell line (HaCaT) was evaluated using the MTT assay. […] In addition, we also determined the cytotoxic activity of free ligands toward selected cancer cells. […] However, this effect depends on the cell line. […] The best values of cytotoxic activity of compounds have been obtained after 72 h of cell incubation. Additionally, synthesized complexes had high sensitivity to A549 cells, so this cell line was selected as the research subject for antitumor activity.
MCF7 cell line (human breast adenocarcinoma, morphology: epithelial-like, ATCC: HTB-22) and A549 cell line (human lung adenocarcinoma, morphology: epithelial, ATCC: CCL-185); HaCaT (human keratinocyte) were cultured in Dulbecco’s Modified Eagle’s Medium (DMEM, Corning, Poland) with phenol red, supplemented with 10% fetal bovine serum (FBS) and with 1% streptomycin/penicillin. Du-145 cell line (human prostate carcinoma); derived from metastatic site: brain was cultured in minimum essential medium (MEM, Corning) with only 10% fetal bovine serum (FBS). Cultures were incubated at 37 °C under a humidified atmosphere containing 5% CO2. Cells were passaged using a solution containing 0.05% trypsin and 0.5 mM EDTA. All media and other ingredients were purchased from ALAB, Poland.
Since most of the studied compounds are insoluble in aqueous media (Dulbecco’s Modified Eagle’s Medium or minimum essential medium (MEM, Corning), therefore, they needed to be pre-dissolved in DMSO for biological tests. DMSO concentration was kept below 1% in each tested concentration of each compound. […] In brief, 5×10^3 per well (0.2 mL) in the two first approaches, while 1×10^4 cells in the case of longer incubation time were seeded in 96-well flat-bottom microtiter plate, were incubated with the tested complexes at various ranges of concentrations. […] Various compound concentrations (dilutions in proper medium supplemented with 1% FBS) were tested in five replicates and repeated at least three times. Determined values of IC50 (concentration of a drug required to inhibit the growth of 50% of the cells) are given as mean + S.D. (Standard Deviation). IC50 values were determined, from the plots of cell viability in the presence of various concentrations of each compound by matching dose–response curves and using the Origin 9.0 software. Furthermore, post-treatment survival assessment of the treated cells was analyzed under an inverted fluorescence microscope (Olympus IC51, Japan) with an excitation filter 470/20 nm. For this, cells were stained with two versatile fluorescence dyes: fluorescein diacetate (FDA, 5 mg/mL) and propidium iodide (PI, 5 mg/mL) in standard conditions in the dark for 20 min. Before visualization, dyes were removed and cells were washed with PBS twice.

[2] = system: A549 cells; assay: Intracellular accumulation, fluorescence microscopy; type: cell-based, human; details: A549, 5 μM, 24 h
Method: It has been reported that the cellular uptake efficacy of a compound is affected by many factors, such as lipophilicity. Synthesized complexes indicate blue fluorescence. Thus, their detection using fluorescence microscopy is possible. For this purpose, A549 (human lung adenocarcinoma epithelial) cells were incubated with Ir(III) complexes (5 μM) for 24 h and analyzed. Phalloidin was co-incubated with Ir(III) complexes to determine subcellular localization further.
The intracellular accumulation of the compound was assessed in the A549 cell line. Before imaging, cells were seeded on microscopic slides at a density of 1×10^5 cells and were kept at 37 °C with 5% CO2 humidified atmosphere for 24 h. After being washed with fresh medium, the cells were incubated with 5 μM solution of tested compound in cell medium for 24 h. Next, after being washed with HBSS, the cells were fixed for 10 min in 3.8% PFA and incubated with specific intracellular organelle probes: 200 nM Mito-Tracker green, 1 μg/mL Quinacrine, and 0.25 nM of PhalloidinAtto 488 (Molecular Probes, Invitrogen Life Technologies; Thermo Fisher Scientific, Waltham, MA, USA), diluted in HBSS buffer. After 30 min incubation, at 37 °C, in the dark, the cells were washed with HBSS two times, and the slide was transferred to the microscope stage and cells were visualized under a fluorescent Zeiss Axio Observer microscope. Registered images were analyzed with the Zeiss ZEN software.

[3] = system: PANC-1 cells; assay: MTT cytotoxicity assay, PANC-1; type: cell-based, human
Method: as §1
Since most of the studied compounds are insoluble in aqueous media (Dulbecco’s Modified Eagle’s Medium or minimum essential medium (MEM, Corning), therefore, they needed to be pre-dissolved in DMSO for biological tests. DMSO concentration was kept below 1% in each tested concentration of each compound. Cytotoxicity was assessed by MTT assay performed according to the protocols described previously in the following experimental approaches: 6 h + 24 h, 24 h + 24 h, and 72 h + 24 h. In brief, 5×10^3 per well (0.2 mL) in the two first approaches, while 1×10^4 cells in the case of longer incubation time were seeded in 96-well flat-bottom microtiter plate, were incubated with the tested complexes at various ranges of concentrations. After an appropriate incubation time of 6, 24, or 72 h, the cells were washed thee time with PBS and fresh medium was applied for a further 24 h in each approach. Various compound concentrations (dilutions in proper medium supplemented with 1% FBS) were tested in five replicates and repeated at least three times. Determined values of IC50 (concentration of a drug required to inhibit the growth of 50% of the cells) are given as mean + S.D. (Standard Deviation). IC50 values were determined, from the plots of cell viability in the presence of various concentrations of each compound by matching dose–response curves and using the Origin 9.0 software. Furthermore, post-treatment survival assessment of the treated cells was analyzed under an inverted fluorescence microscope (Olympus IC51, Japan) with an excitation filter 470/20 nm. For this, cells were stained with two versatile fluorescence dyes: fluorescein diacetate (FDA, 5 mg/mL) and propidium iodide (PI, 5 mg/mL) in standard conditions in the dark for 20 min. Before visualization, dyes were removed and cells were washed with PBS twice.

[4] = Partition coefficient, shake-flask method (n-octanol/PBS); type: physicochemical
Method: The partition coefficient was determined by the shake-flask method. A small amount of compound was dissolved in 5 mL PBS-saturated n-octanol. The sample was sonicated until all the compound was dissolved. Next, 5 mL of PBS saturated with n-octanol was added and the experiment proceeded as before. The resulting mixture was vortexed for 30 min in horizontal position. The sample was centrifuged for 2 min at 3700 rpm to obtain a phase separation. Next, 2 mL of each phase was taken. The next steps were a 5 min sonication and measurement of absorption spectra of the obtained solutions. The calibration curve was prepared in order to determine the concentration of the tested compounds in individual solutions. It was made using the absorption intensity of the compounds in series dilution solutions in PBS saturated with octanol or octanol saturated with PBS in the concentration range c = 1–100 nM.

Molecule | IC50 ([1]; 24 h) | IC50 ([1]; 48 h) | IC50 ([1]; 72 h) | penetration into cells [2] | subcellular localization [2] | IC50 ([3]; 24 h) | IC50 ([3]; 72 h) | Experimental LogP (logPo/w) [4]
CCN(CC)C[P+](c1ccccc1)(c1ccccc1)[Ir-3]([Cl])([Cl])[C]1(C)C(C)=C(C)C(C)=C1C [1a, Ir(η^5-Cp*)Cl2Ph2PCH2N(CH2CH3)2] | 189 ± 9 µM | 184 ± 6 µM | 85 ± 8 µM | can penetrate A549 cells | signal in whole (retain within the cytoplasm) cells with relative higher intensity in the nuclei | 143 ± 3 µM | 91 ± 13 µM | 3.03
Ru(η^6-p-cymene)Cl2Ph2PCH2N(CH2CH3)2 [1b] | 295 ± 12 µM | 352 ± 25 µM | 145 ± 15 µM | can penetrate A549 cells | localize mainly in nuclei | 146 ± 5 µM | 128 ± 14 µM | 3.1
